In brackets after ≈: the same amount, converted by molar mass.
What was measured:
Format in all cases: cell-based
[1] = test system: Pseudomonas aeruginosa #28; assay: Minimal Inhibitory Concentration, Pseudomonas aeruginosa #28
Staph. aureus S18713 = assay: Minimal Inhibitory Concentration, Staph. aureus S18713; conditions: Staphylococcus aureus
Serr. marces. = assay: Minimal Inhibitory Concentration, Serr. marces.
Entero. cloacae = assay: Minimal Inhibitory Concentration, Entero. cloacae; conditions: Enterobacter cloacae
Klebs. pneu. = assay: Minimal Inhibitory Concentration, Klebs. pneu.

SMILES	MIC [1] [µg/mL]	MIC (Staph. aureus S18713) [µg/mL]	MIC (Serr. marces.) [µg/mL]	MIC (Entero. cloacae) [µg/mL]	MIC (Klebs. pneu.) [µg/mL]
CC1(C)S[C@@H]2[C@H](NC(=O)[C@H](NC(=O)c3ccc(-c4cccc(NS(C)(=O)=O)c4)[nH]c3=O)c3ccccc3)C(=O)N2[C@H]1C(=O)O [Example 1, N-[6-[3-(Methylsulfonylamino)phenyl]-1,2-dihydro-2-oxonicotinoyl]ampicillin]	12.5 (≈ 19.5 µM)	> 200	25 (≈ 39.1 µM)	6.3 (≈ 9.85 µM)	1.6 (≈ 2.5 µM)
CC1(C)S[C@@H]2[C@H](NC(=O)[C@H](NC(=O)c3ccc(-c4ccc(NS(C)(=O)=O)cc4)[nH]c3=O)c3ccccc3)C(=O)N2[C@H]1C(=O)O [Example 2, N-[6-[4-(Methylsulfonylamino)phenyl]-1,2-dihydro-2-oxonicotinoyl]ampicillin]	3.1 (≈ 4.85 µM)	100 (≈ 156 µM)	50 (≈ 78.2 µM)	6.3 (≈ 9.85 µM)	3.1 (≈ 4.85 µM)
CC1(C)S[C@@H]2[C@H](NC(=O)[C@H](NC(=O)c3ccc(-c4ccc(NS(C)(=O)=O)cc4)[nH]c3=O)c3ccc(O)cc3)C(=O)N2[C@H]1C(=O)O [Example 3]	1.6 (≈ 2.44 µM)	100 (≈ 153 µM)	100 (≈ 153 µM)	3.1 (≈ 4.73 µM)	3.1 (≈ 4.73 µM)
CC1(C)S[C@@H]2[C@H](NC(=O)[C@H](NC(=O)c3ccc(-c4ccc(NS(=O)(=O)CCc5ccncc5)cc4)[nH]c3=O)c3ccccc3)C(=O)N2[C@H]1C(=O)O [Example 8]	6.3 (≈ 8.62 µM)	100 (≈ 137 µM)	100 (≈ 137 µM)	6.3 (≈ 8.62 µM)	3.1 (≈ 4.24 µM)
CC1(C)S[C@@H]2[C@H](NC(=O)[C@H](NC(=O)c3ccc(-c4cccc(NS(=O)(=O)c5cccnc5)c4)[nH]c3=O)c3ccccc3)C(=O)N2[C@H]1C(=O)O [Example 10, N-[6-[3-(3-pyridinylsulfonylamino)phenyl]-1,2-dihydro-2-oxonicotinoyl]ampicillin]	12.5 (≈ 17.8 µM)	> 200	100 (≈ 142 µM)	12.5 (≈ 17.8 µM)	6.3 (≈ 8.96 µM)
CC1(C)S[C@@H]2[C@H](NC(=O)[C@H](NC(=O)c3ccc(-c4ccc(NS(=O)(=O)c5cccnc5)cc4)[nH]c3=O)c3ccccc3)C(=O)N2[C@H]1C(=O)O [Example 9, N-[6-[4-(3-pyridinylsulfonylamino)phenyl]-1,2-dihydro-2-oxonicotinoyl]ampicillin]	12.5 (≈ 17.8 µM)	100 (≈ 142 µM)	100 (≈ 142 µM)	12.5 (≈ 17.8 µM)	6.3 (≈ 8.96 µM)
CCCS(=O)(=O)Nc1ccc(-c2ccc(C(=O)N[C@@H](C(=O)N[C@@H]3C(=O)N4[C@@H]3SC(C)(C)[C@@H]4C(=O)O)c3ccccc3)c(=O)[nH]2)cc1 [Example 4, N-[6-[4-(Propylsulfonylamino)phenyl]-1,2-dihydro-2-oxonictinoyl]ampicillin]	3.1 (≈ 4.64 µM)	100 (≈ 150 µM)	50 (≈ 74.9 µM)	6.3 (≈ 9.43 µM)	3.1 (≈ 4.64 µM)

Continued, values first:

MIC [1] [µg/mL]	MIC (Staph. aureus S18713) [µg/mL]	MIC (Serr. marces.) [µg/mL]	MIC (Entero. cloacae) [µg/mL]	MIC (Klebs. pneu.) [µg/mL]	SMILES
12.5 (≈ 17.6 µM)	25 (≈ 35.2 µM)	50 (≈ 70.5 µM)	6.3 (≈ 8.88 µM)	25 (≈ 35.2 µM)	CC1(C)S[C@@H]2[C@H](NC(=O)[C@H](NC(=O)c3ccc(-c4ccc(NS(=O)(=O)C(F)(F)F)cc4)[nH]c3=O)c3ccc(O)cc3)C(=O)N2[C@H]1C(=O)O [Example 6, N[6-[4-(Trifluoromethylsulfonylamino)phenyl]-1,2-dihydro-2-oxonicotinoyl]amoxicillin]
6.3 (≈ 8.68 µM)	100 (≈ 138 µM)	100 (≈ 138 µM)	6.3 (≈ 8.68 µM)	3.1 (≈ 4.27 µM)	CC(=O)OCCCS(=O)(=O)Nc1ccc(-c2ccc(C(=O)N[C@@H](C(=O)N[C@@H]3C(=O)N4[C@@H]3SC(C)(C)[C@@H]4C(=O)O)c3ccccc3)c(=O)[nH]2)cc1 [Example 7, N-[6-[4-[3-(acetyloxy)propylsulfonylamino]phenyl]-1,2-dihydro-2-oxonicotinoyl]ampicillin]
6.3 (≈ 9.08 µM)	200 (≈ 288 µM)	200 (≈ 288 µM)	6.3 (≈ 9.08 µM)	3.1 (≈ 4.47 µM)	CC1(C)S[C@@H]2[C@H](NC(=O)[C@H](NC(=O)c3ccc(-c4ccc(NS(=O)(=O)C(F)(F)F)cc4)[nH]c3=O)c3ccccc3)C(=O)N2[C@H]1C(=O)O [Example 5, N-[6-[4-(Trifluoromethylsulfonylamino)phenyl]-1,2-dihydro-2-oxonicotinoyl]ampicillin]

— patent US4315014A, “Antibacterial amide compounds and pharmaceutical composition containing the same” (Warner-Lambert Company, priority 1980, dated 1982)
